One experiment concerns BL-41. Nature of the experiment: CellTiter-Glo (CTG) cell proliferation assay, 72 hours. It counts as cell-based. The note with it: Homo sapiens, Burkitt Lymphoma. The method, then: (§1) Preparation of Solutions of Test Article: Compounds were plated into black 384-well plates (Corning Inc.) to a final DMSO volume of 0.1% assuming a maximal volume of 50 μL. A 10-point dose response starting at 10 μM with a 1:3 dilution was printed in duplicate by acoustic dispense using the EDC ATS-100 platform.
(§2) Cell Proliferation Assays: The effect of Compound 1 on the proliferation/viability of the hematological cell lines (Table 1 Table, Table 2 and Table 3), THLE-2, or PBMCs was assessed after 72 hours incubation using CTG (Promega), according to manufacturer's instructions. Hematological cell lines were dispensed into compound plates by a Multidrop™ Combi Reagent Dispenser (Thermo Scientific, Waltham, Mass.) at a concentration of 0.1 to 0.3×10^6 cells per mL in a 50 μL total volume. THLE-2 cells were seeded out at 1000 cells per well in 50 μL volume and incubated for 72 hours. At 72 hours, 25 μL per well of CTG was dispensed by a Multidrop™ Combi Reagent Dispenser and adenosine triphosphate (ATP) release by viable cells was measured as relative luminescence units after 30 minutes using the Envision platform.
On the technique in general: Cellular ATP, detected with luciferase, serves as a proxy for viable cell number.

Another experiment deals with Blue-1. The experiment is described as above. It counts as cell-based. The note with it: Homo sapiens, Burkitt Lymphoma. The method, then: as §1, §2
The subject of the next experiment is Daudi. The description is as above. Type of experiment: cell-based. The settings on record: Homo sapiens, Burkitt Lymphoma. The method, then: as §1, §2
Another experiment concerns Karpas 299. Described as above. It counts as cell-based. The note with it: Homo sapiens, Anaplastic Large Cell Lymphoma. The procedure: as §1, §2
A further experiment has as its system MC-116. The description is as above. It counts as cell-based. The note with it: Homo sapiens, MC116, Acute Lymphoblastic Leukemia. The method, then:
as §1, §2

For the next experiment, the system named is RC-K8. Described as above. It counts as cell-based. The settings on record: Homo sapiens, RCK8, Diffuse Large B-cell Lymphoma (activated B-cell like). The procedure:
as §1, §2

Another experiment has as its system Ramos. Described as above. It counts as cell-based. The settings on record: Homo sapiens, Burkitt Lymphoma. The method, then:
as §1, §2

Experiment [1] has as its system BFU-E (erythroid progenitors). In words: cells. The settings on record: for pIC50: Homo sapiens. It counts as cell-based, human. The method, then: Experimental design: human bone marrow (BM) CD34+ cells were used to evaluate the potential for BM toxicity induced by Compound 1. In order to test the effects of Compound 1 on the functionality of hematopoietic progenitors, colony forming assays were done by seeding BM CD34+ cells on MethoCult medium. Cells were seeded directly in MethoCult with Compound 1 or cultured in liquid medium with Compound 1 for 2, 4, or 8 hours and then seeded in compound-free MethoCult to evaluate the effect of different exposure times. Early apoptosis induced by Compound 1 on HSC was analyzed by flow cytometry.
Results. Colony forming units (CFU) of common granulocyte/erythrocyte/monocyte/megakaryocyte (CFU-GEMM), CFU of granulocyte/monocyte (CFU-GM), burst forming unit of erythrocytes (BFU-E), and CFU of erythrocytes (CFU-E) in cultures exposed to Compound 1 or DMSO were scored on STEMvision.
Bone marrow CD34+ cells from normal donors were incubated with Compound 1 in MethoCult medium. Colony numbers for CFU-GM and BFU-E progenitors were counted using STEMVision automatic colony counting instrument and software and normalized to the colony number of the DMSO control. Results plotted as percentage of DMSO control vs concentration of Compound 1 were used to determine IC50 values. Data are shown as mean standard error of the mean of n=3 technical replicates. Donors were HD10, HD14, HD18, and HD19.
FIGS. 33A and 33B provide, colony numbers after preincubation of bone marrow CD34+ cells with Compound 1 for 4 or 8 hours, respectively, in Iscove's medium, followed by incubation in MethoCult medium without Compound 1 for 14 days. FIG. 33C provides colony numbers after incubation of bone marrow CD34+ cells in MethoCult medium in continuous presence of Compound 1 for 14 days.

Experiment [2] concerns HL-60 human AML cells. Nature of the experiment: HL-60 IV AML xenograft model, survival study. It counts as in vivo, SCID mice. The procedure: In this study, Compound 1 antitumor activity in the HL-60 IV AML xenograft model was studies. In this model, HL-60 human AML cells engraft in host BM and internal organs (eg, spleen, liver) and animals develop progressive peripheral leukocytosis. Female severe combined immunodeficiency (SCID) mice were inoculated with HL-60 cells by tail vein injection. To understand the effect of Compound 1 on the xenografted HL-60 cells, animals were dosed intraperitoneal (IP) with vehicle or Compound 1 (0.5, 1, 2.5, and 5 mg/kg) once daily (QD)×5 between Weeks 3 and 4 post-engraftment (AP6516, survival study) or animals were dosed IP twice daily (BID) with vehicle or Compound 1 for 5 or 10 consecutive days (5 mg/kg BID×5 or 2.5 mg/kg, BID×10) between Weeks 6 and 8 post-engraftment (Study AP6982, % human CD33+[hCD33+] cells in BM).
Tumor burden from the peripheral blood of HL-60-bearing animals was assessed by fluorescence-activated cell sorting (FACS) at Week 7 post-tumor cell inoculation. […] Mice from the vehicle control and Compound 1 treatment groups succumbed to disease burden starting on Day 54 for the vehicle control group and between Day 51 and Day 57 for the Compound 1 treatment groups. […] One mouse (1/8) from the 2.5 mg/kg Compound 1-treated group survived to study termination on Day 162.

The test system of experiment [3] is HL-60 human AML cells. Nature of the experiment: HL-60 IV AML xenograft model, bone marrow histology. It counts as in vivo, SCID mice. The procedure:
In this study, different Compound 1 dosing schedules (5 mg/kg, BID×5 consecutive days versus 2.5 mg/kg, BID×10 consecutive days) were studied while maintaining the total amount of drug administered constant. Vehicle control animals were treated with 5% N-methyl-2-pyrrolidone (NMP)/45% PEG 400/50% saline. Treatment was initiated 6 weeks post inoculation. Vehicle and Compound 1 treatment groups were terminated either on Day 7 (following 5 consecutive days of 5 mg/kg twice a day [BID] Compound 1) or on Day 11 (following 10 consecutive days of 2.5 mg/kg BID Compound 1) post treatment initiation. The primary endpoint for the study was percentage of hCD33+/CD45+ cells in the BM by FACS analysis. Additional endpoints included cell viability, body weight, and BM histology.
The alternate femur of vehicle and Compound 1-treated animals was fixed in formalin, embedded in paraffin and processed for hematoxylin and eosin staining. A single tissue section/animal was used for histological analysis and the percent of tumor in viable bone marrow was estimated based on the area occupied by tumor cells. There was a significant 35% reduction (p<0.006 relative to the vehicle control) in the percentage of viable tumor in the bone marrow with Compound 1 (5 mg/kg) BID×5 treatment. […]

The source of these data is patent US11590117B2, “Treatment of a hematologic malignancy with 2-(4-chlorophenyl)-n-((2-(2,6-dioxopiperidin-3-yl)-1-oxoisoindolin-5-yl)methyl)-2,2-difluoroacetamide” (priority 2016, dated 2023).

pIC50: −log10 of the molar value. Where two headings read alike, the source gives them in different places.

What is called pIC50 is the negative decadic logarithm of the IC50, by convention in mol/L. Turning to `O=C1CCC(N2Cc3cc(CNC(=O)C(F)(F)c4ccc(Cl)cc4)ccc3C2=O)C(=O)N1` (stereo not drawn) [Compound 1, 2-(4-chlorophenyl)-N-((2-(2,6-dioxopiperidin-3-yl)-1-oxoisoindolin-5-yl)methyl)-2,2-difluoroacetamide], the pIC50 in the experiment with BL-41 was under 5.00; in the experiment on Blue-1, 6.01; in the experiment on Daudi, 6.41; with Karpas 299, under 5.00; with MC-116 it was under 5.00; with RC-K8, 6.02. Also, the pIC50 was under 5.00 in the experiment on Ramos; 6.82 to 7.52 in [1] (8 hours exposure, donors HD46, HD47, HD48, HD50, read-out: individual IC50 values, BFU-E colonies); 6.88 to 7.49 in experiment [1] (CD34+ cells from four healthy donors, Compound 1 in MethoCult, read-out: IC50, inhibition of erythroid progenitors (BFU-E)). Further, the “reduction in number of BFU-E colonies” value in experiment [1] (8 hours exposure, Compound 1 ≥111 nM, donors HD46, HD47, HD48, HD50) is on record as “more than 50%”. In addition, the “mice surviving to study termination on Day 162” value in the experiment with HL-60 human AML cells [2] (2.5 mg/kg group) was 1/8. The overall survival result in the experiment with HL-60 human AML cells [2] (0.5, 1, 2.5, 5 mg/kg IP QD×5 between Weeks 3 and 4 post-engraftment) is recorded as “No overall survival benefit”. The “tumor burden from peripheral blood (FACS)” value with HL-60 human AML cells [2] (Week 7 post-tumor cell inoculation, 0.5, 1, 2.5, 5 mg/kg IP QD×5, vs vehicle) was “No effect”. Moreover, the “reduction in percentage of viable tumor in the bone marrow (histology)” value is on record as 23.5% in the experiment on HL-60 human AML cells [3] (2.5 mg/kg BID×10, relative to vehicle control, not statistically significant) and 35% in the experiment on HL-60 human AML cells [3] (5 mg/kg BID×5, p<0.006 relative to vehicle control).
